# How the values were obtained:
# Assay type in all cases: toxicity, cell-based
# HEK-293T = assay: Incucyte cell viability with HEK293T; details: human, 10 µM, compound concentration 10 uM
# U2OS = assay: Incucyte cell viability with U2OS; details: human, 10 µM, compound concentration 10 uM
# Fibroblast = assay: Incucyte cell viability with human fibroblast; details: 10 µM, compound concentration 10 uM
# Further: unitless GR value; below 1 slowed growth and below 0 cell loss.
SMILES,"Growth Rate (HEK-293T; 0 h, replicate number 2)","Growth Rate (HEK-293T; 6 h, replicate number 2)","Growth Rate (HEK-293T; 12 h, replicate number 2)","Growth Rate (HEK-293T; 18 h, replicate number 2)","Growth Rate (HEK-293T; 24 h, replicate number 2)","Growth Rate (U2OS; 0 h, replicate number 1)","Growth Rate (U2OS; 6 h, replicate number 2)","Growth Rate (U2OS; 12 h, replicate number 1)","Growth Rate (U2OS; 18 h, replicate number 1)","Growth Rate (U2OS; 24 h, replicate number 1)","Growth Rate (U2OS; 24 h, replicate number 2)","Growth Rate (Fibroblast; 6 h, replicate number 2)","Growth Rate (Fibroblast; 24 h, replicate number 1)","Growth Rate (HEK-293T; 6 h, replicate number 1)","Growth Rate (HEK-293T; 12 h, replicate number 1)","Growth Rate (HEK-293T; 24 h, replicate number 1)","Growth Rate (U2OS; 18 h, replicate number 2)","Growth Rate (Fibroblast; 12 h, replicate number 2)","Growth Rate (Fibroblast; 18 h, replicate number 2)","Growth Rate (Fibroblast; 24 h, replicate number 2)",further results
COc1cc2c(cc1CC=C(C)C)C(=O)C[C@@H](c1ccc(O)cc1)O2 [BAVACHININ A],-0.67,0.97,0.94,0.89,0.92,-0.43,0.85,0.89,0.89,0.73,0.99,0.81,0.99,,,,,,,,"Growth Rate (HEK-293T; 0 h, replicate number 1): -0.07; Growth Rate (Fibroblast; 0 h, replicate number 2): -0.08"
Cl.Cl.N#Cc1ccc(O[C@@H]2c3ccccc3C[C@H]2N2CCC[C@@H](N)C2)c(Cl)c1,,-0.57,-0.24,-0.13,-0.04,-1,,0.7,0.67,0.72,0.93,0.35,,-0.97,-0.93,-0.66,0.86,0.27,0.29,0.37,"Growth Rate (HEK-293T; 18 h, replicate number 1): -0.77; Growth Rate (U2OS; 12 h, replicate number 2): 0.96; Growth Rate (Fibroblast; 6 h, replicate number 1): -1"
CCCCc1oc2ccccc2c1C(=O)c1cc(I)c(OCCN(CC)CC)c(I)c1.Cl [AMIODARONE HYDROCHLORIDE],-0.99,-0.04,-0.11,0.1,0.24,0.24,,0.98,0.77,,,-0.16,-0.01,0.31,0.36,0.45,,-0.27,-0.44,-0.43,"Growth Rate (HEK-293T; 18 h, replicate number 1): 0.5; Growth Rate (U2OS; 6 h, replicate number 1): 0.43; Growth Rate (Fibroblast; 0 h, replicate number 1): 0.24; Growth Rate (Fibroblast; 12 h, replicate number 1): 0.4; Growth Rate (Fibroblast; 18 h, replicate number 1): -0.02"
Cn1c(C(=O)N[C@@H](CO)c2ccc(C(=O)O)cc2)cc2cc(Cl)ccc21,0.28,,,,,0.76,,,,0.92,,-0.6,1,0.78,,0.96,,0.49,0.69,0.68,"Growth Rate (U2OS; 6 h, replicate number 1): 0.58; Growth Rate (Fibroblast; 0 h, replicate number 2): 0.3"
CC(=O)c1c(C)c2cnc(Nc3ccn(C)n3)nc2n(C2CCCC2)c1=O,,0.76,0.81,0.79,0.83,,0.96,0.06,,,,0.93,,0.81,0.97,0.79,0.92,,,,"Growth Rate (HEK-293T; 0 h, replicate number 1): 0.51; Growth Rate (HEK-293T; 18 h, replicate number 1): 0.9; Growth Rate (U2OS; 6 h, replicate number 1): 0.67; Growth Rate (U2OS; 12 h, replicate number 2): 0.99; Growth Rate (Fibroblast; 18 h, replicate number 1): 0.8"
C=C(F)C(=O)N1CCN(c2nc(OC[C@@H]3CCCN3C)nc3c2CCN(c2cccc4cccc(Cl)c24)C3)C[C@@H]1CC#N [ADAGRASIB],,-0.86,-0.57,-0.46,-0.38,-1,0.32,-0.94,-0.89,-0.76,-0.3,-0.86,-0.3,-0.26,-0.28,-0.21,-0.27,-0.18,-0.27,-0.22,"Growth Rate (HEK-293T; 18 h, replicate number 1): -0.25; Growth Rate (U2OS; 0 h, replicate number 2): -0.94; Growth Rate (U2OS; 6 h, replicate number 1): -0.94; Growth Rate (U2OS; 12 h, replicate number 2): -0.11; Growth Rate (Fibroblast; 0 h, replicate number 1): -1; Growth Rate (Fibroblast; 6 h, replicate number 1): -0.47; Growth Rate (Fibroblast; 12 h, replicate number 1): -0.27; Growth Rate (Fibroblast; 18 h, replicate number 1): -0.26"
COc1ccc(CC[C@@H](OC(=O)[C@H]2CCCCN2C(=O)[C@@H](c2cc(OC)c(OC)c(OC)c2)C2CCCCC2)c2cccc(OCCN3CCOCC3)c2)cc1OC,-0.05,,0.72,0.52,0.49,,-0.94,,0.98,,0.87,,0.99,,,0.74,0.99,,,,"Growth Rate (U2OS; 0 h, replicate number 2): -1; Growth Rate (Fibroblast; 0 h, replicate number 1): -0.89"
COc1ccccc1Nc1nc(-c2nn(Cc3c(F)cc(OCCCO)cc3F)c3ccccc23)ncc1OC,,,,,,,0.89,,,,0.96,0.53,0.77,,,,1,0.41,0.58,0.85,"Growth Rate (HEK-293T; 0 h, replicate number 1): 0.17; Growth Rate (U2OS; 12 h, replicate number 2): 0.93; Growth Rate (Fibroblast; 0 h, replicate number 2): -0.85; Growth Rate (Fibroblast; 6 h, replicate number 1): 0.3; Growth Rate (Fibroblast; 12 h, replicate number 1): 0.59; Growth Rate (Fibroblast; 18 h, replicate number 1): 0.85"
